“Also recorded” adds a separate entry of the source.
Test system: B16 melanoma
Assay: Imaging of tumor cell death in B16 melanoma in vivo, fluorescent microscopy
Design: species or system c57/black mice
Conditions: BiCNU 35 mg/Kg; compound i.v. 1-3 mg/animal after 24 h; tumors removed 2 h later
Description: Mice bearing B16-melanoma were treated with chemotherapy (BiCNU 35 mg/Kg, one dose), and then injected intravenously with NST920B. Animals were sacrificed two hours later, and the tumor was removed and subjected to fluorescent histopathological assessment, to identify binding of NST920B. Shown is fluorescent microscopic image of a section of the tumor.
Melanoma tumors were induced in c57/black mice by subcutaneous injection of B16-F10 cell line (ATCC CRL-6475). The cell line was maintained in culture in Dulbecco's modified Eagle's medium (DMEM), supplemented with 4 mM of L-glutamine; 100 units/ml of penicillin; 100 μg/ml of streptomycin; 12.5 units/ml of nystatin and 10% of fetal calf serum (FCS). For tumor induction, 10^5 cells in a volume of 100 μl were injected […] to 8 week-old male mice. 15 days later, when tumor diameter reached 5-6 mm, the mice were treated with chemotherapy (BiCNU, 1,3-bis(2-chloroethyl)-1-nitrosourea, at a single dose of 35 mg/Kg). Twenty-four hours after chemotherapy, the mice were injected intravenously with the compounds of the invention NST920B, NST930 and Re-NST904 (1-3 mg/animal). Two hours later, tumors were removed, frozen in liquid nitrogen, and subjected to cryosection. Evaluation of fluorescent signal was performed using fluorescent microscope.

Question: Which results are given for `CN(C)c1cccc2c(S(=O)(=O)N(CCOCCN(CC(=O)O)S(=O)(=O)c3cccc4c(N(C)C)cccc34)CC(=O)O)cccc12` [NST920B]?
Answer: uptake by viable, non-apoptotic tumor cells, B16 melanoma: did not manifest such uptake; uptake into apoptotic tumor cells, B16 melanoma: Uptake of NST920B into apoptotic cells is demonstrated; also recorded: selective uptake

— patent US7378079B2, “Agents for imaging and diagnostic methods using them” (NST Neurosurvival Technologies Ltd., priority 2002, dated 2008)
